For data set [1], the target named is T1, TrxR1 (thioredoxin reductase 1) (Rattus norvegicus, UniProt O89049).
T1 construct: gene Txnrd1
T1 sequence (O89049 1-499): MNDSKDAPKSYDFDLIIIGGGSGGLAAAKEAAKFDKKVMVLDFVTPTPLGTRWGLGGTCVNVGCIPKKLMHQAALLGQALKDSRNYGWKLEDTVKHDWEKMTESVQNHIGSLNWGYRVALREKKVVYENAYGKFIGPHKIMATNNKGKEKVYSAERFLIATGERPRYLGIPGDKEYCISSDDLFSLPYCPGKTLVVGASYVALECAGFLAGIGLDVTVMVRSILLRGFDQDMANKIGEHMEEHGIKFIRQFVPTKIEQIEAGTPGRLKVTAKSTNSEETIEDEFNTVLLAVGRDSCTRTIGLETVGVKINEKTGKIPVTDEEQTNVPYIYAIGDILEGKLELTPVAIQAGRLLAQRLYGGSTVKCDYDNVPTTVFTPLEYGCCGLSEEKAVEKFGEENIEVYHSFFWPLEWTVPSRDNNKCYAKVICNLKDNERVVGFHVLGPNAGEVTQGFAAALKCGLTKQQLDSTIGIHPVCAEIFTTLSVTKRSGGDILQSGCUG
Briefly: DTNB assay on purified recombinant TrxR1, […] h incubation.

For data set [2], the target named is T1, TrxR1 (thioredoxin reductase 1). Briefly: fluorescence quenching (Stern-Volmer) with GST as control; also DTNB assay on recombinant TrxR1, IC50 […]. In kind it is binding.

Molecules are shown by their SMILES.

`CC[P](CC)(CC)=[Au][S][C@@H]1O[C@H](COC(C)=O)[C@@H](OC(C)=O)[C@H](OC(C)=O)[C@H]1OC(C)=O` [auranofin]: the IC50 in data set [1] was 1.47 ± 0.03 µM. With `CC(=O)CC#[C][Au][P](c1ccccc1)(c1ccccc1)C1CCCCC1` [TRI-03], the Kd in data set [2] was 0.31 ± 0.05 µM.

For orientation: IC50 means the midpoint of a concentration-inhibition curve. Broadly, the Kd is the constant that tells how readily two partners part at equilibrium.

The record behind these values is article PMC12141336, “A dual inhibitor of TrxR1 and XIAP induces pyroptosis in melanoma” (Frontiers in Cell and Developmental Biology, 2025).
